ChEMBL document CHEMBL1201862, “PubChem BioAssay data set” (2004)
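Tested at 5 concentrations; 48 h exposure; 96-well plates; endpoints linearly interpolated, else capped at highest concentration. GI50 is the concentration that inhibits growth by half.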 Active and inactive are the calls of the source. Rule as the data show it: active = GI50 up to about 1.1 µM and inactive = higher.

Assays:
Assay in all cases: NCI anticancer screen, dose series, 48 h
786-0 = test system: 786-0
A498 = test system: A498
A549 = test system: A549
ACHN = test system: ACHN
CAKI-1 = test system: CAKI-1
CCRF-CEM = test system: CCRF-CEM
COLO 205 = test system: COLO 205
DLD-1 = test system: DLD-1
DMS-114 = test system: DMS-114
DMS-273 = test system: DMS-273
EKVX = test system: EKVX
HCT-116 = test system: HCT-116
HCT-15 = test system: HCT-15
HOP-62 = test system: HOP-62
HOP-92 = test system: HOP-92
HT-29 = test system: HT-29
IGROV-1 = test system: IGROV-1
K562 = test system: K562
KM12 = test system: KM12
LXFL 529 = test system: LXFL 529
M14 = test system: M14
M19-MEL = test system: M19-MEL
MOLT-4 = test system: MOLT-4
Malme-3M = test system: Malme-3M
NCI-H23 = test system: NCI-H23
NCI-H460 = test system: NCI-H460
NCI-H522 = test system: NCI-H522
OVCAR-3 = test system: OVCAR-3
OVCAR-8 = test system: OVCAR-8
RPMI-8226 = test system: RPMI-8226
SF-268 = test system: SF-268
SF-539 = test system: SF-539
SK-MEL-28 = test system: SK-MEL-28
SK-MEL-2 = test system: SK-MEL-2
SK-MEL-5 = test system: SK-MEL-5
SK-OV-3 = test system: SK-OV-3
SN12C = test system: SN12C
SNB-19 = test system: SNB-19
SNB-75 = test system: SNB-75
SNB-78 = test system: SNB-78
SR = test system: SR
SW-620 = test system: SW-620
TK-10 = test system: TK-10
U-251 = test system: U-251
UACC-62 = test system: UACC-62
UO-31 = test system: UO-31
XF498 = test system: XF498
BT-549 = test system: BT-549
DU-145 = test system: DU-145
HL-60 = test system: HL-60
Hs-578T = test system: Hs-578T
KM-20L2 = test system: KM-20L2
LOX IMVI = test system: LOX IMVI
MCF7 = test system: MCF7
MDA-MB-231 = test system: MDA-MB-231
MDA-MB-435 = test system: MDA-MB-435
MDA-N = test system: MDA-N
NCI-H226 = test system: NCI-H226
NCI/ADR-RES = test system: NCI/ADR-RES
OVCAR-4 = test system: OVCAR-4
OVCAR-5 = test system: OVCAR-5
PC-3 = test system: PC-3
RXF 393 = test system: RXF 393
SF-295 = test system: SF-295
T47D = test system: T47D
UACC-257 = test system: UACC-257
HCC 2998 = test system: HCC 2998

CCOC(=O)Cn1c(=O)n(C)c(=O)c2[nH]cnc21
GI50 (786-0): > 100 µM (inactive) | GI50 (A498): > 100 µM (inactive) | GI50 (A549): > 100 µM (inactive) | GI50 (ACHN): > 100 µM (inactive) | GI50 (CAKI-1): > 100 µM (inactive) | GI50 (CCRF-CEM): > 100 µM (inactive) | GI50 (COLO 205): > 100 µM (inactive) | GI50 (DLD-1): > 100 µM (inactive) | GI50 (DMS-114): > 100 µM (inactive) | GI50 (DMS-273): > 100 µM (inactive) | GI50 (EKVX): > 100 µM (inactive) | GI50 (HCT-116): > 100 µM (inactive) | GI50 (HCT-15): > 100 µM | GI50 (HOP-62): > 100 µM (inactive) | GI50 (HOP-92): > 100 µM (inactive) | GI50 (HT-29): > 100 µM (inactive) | GI50 (IGROV-1): > 100 µM (inactive) | GI50 (K562): > 100 µM (inactive) | GI50 (KM12): > 100 µM (inactive) | GI50 (LXFL 529): > 100 µM (inactive) | GI50 (M14): > 100 µM (inactive) | GI50 (M19-MEL): > 100 µM (inactive) | GI50 (MOLT-4): > 100 µM (inactive) | GI50 (Malme-3M): > 100 µM (inactive) | GI50 (NCI-H23): > 100 µM (inactive) | GI50 (NCI-H460): > 100 µM (inactive) | GI50 (NCI-H522): > 100 µM (inactive) | GI50 (OVCAR-3): > 100 µM (inactive) | GI50 (OVCAR-8): > 100 µM (inactive) | GI50 (RPMI-8226): > 100 µM (inactive) | GI50 (SF-268): > 100 µM (inactive) | GI50 (SF-539): > 100 µM (inactive) | GI50 (SK-MEL-28): > 100 µM (inactive) | GI50 (SK-MEL-2): > 100 µM (inactive) | GI50 (SK-MEL-5): > 100 µM (inactive) | GI50 (SK-OV-3): > 100 µM (inactive) | GI50 (SN12C): > 100 µM (inactive) | GI50 (SNB-19): > 100 µM (inactive) | GI50 (SNB-75): > 100 µM (inactive) | GI50 (SNB-78): > 100 µM (inactive) | GI50 (SR): > 100 µM (inactive) | GI50 (SW-620): > 100 µM (inactive) | GI50 (TK-10): > 100 µM (inactive) | GI50 (U-251): > 100 µM (inactive) | GI50 (UACC-62): > 100 µM (inactive) | GI50 (UO-31): > 100 µM (inactive) | GI50 (XF498): > 100 µM (inactive)

COC1C(O)=C2C(=O)O/C(C)=C/C=C/C=C/C=C\CC(c3ccccc3)NC(=O)\C=C/C=C\C=C\C=C\[C@@]2(C)[C@@H]1O (stereo partly specified)
GI50 (786-0): 0.017 µM (active) | GI50 (A498): 0.0129 µM (active) | GI50 (A549): < 0.01 µM (active) | GI50 (ACHN): < 0.01 µM (active) | GI50 (BT-549): < 0.01 µM (active) | GI50 (CAKI-1): < 0.0203 µM (active) | GI50 (CCRF-CEM): < 0.01 µM (active) | GI50 (COLO 205): 0.0104 µM (active) | GI50 (DLD-1): < 0.01 µM (active) | GI50 (DMS-114): 0.0249 µM (active) | GI50 (DU-145): 0.0117 µM (active) | GI50 (EKVX): 0.0357 µM (active) | GI50 (HCT-116): < 0.01 µM (active) | GI50 (HCT-15): < 0.01 µM | GI50 (HL-60): < 0.01 µM (active) | GI50 (HOP-62): < 0.0334 µM (active) | GI50 (HOP-92): < 0.01 µM (active) | GI50 (HT-29): < 0.01 µM (active) | GI50 (Hs-578T): < 0.01 µM (active) | GI50 (IGROV-1): < 0.0211 µM (active) | GI50 (K562): < 0.01 µM (active) | GI50 (KM-20L2): < 0.01 µM (active) | GI50 (KM12): < 0.0146 µM (active) | GI50 (LOX IMVI): 0.0176 µM (active) | GI50 (M14): < 0.0371 µM (active) | GI50 (M19-MEL): 0.0538 µM (active) | GI50 (MCF7): < 0.01 µM (active) | GI50 (MDA-MB-231): < 0.01 µM (active) | GI50 (MDA-MB-435): < 0.01 µM (active) | GI50 (MDA-N): 0.033 µM (active) | GI50 (MOLT-4): < 0.0181 µM (active) | GI50 (Malme-3M): < 0.0223 µM (active) | GI50 (NCI-H226): 0.0175 µM (active) | GI50 (NCI-H23): 0.0144 µM (active) | GI50 (NCI-H460): < 0.01 µM (active) | GI50 (NCI-H522): < 0.01 µM (active) | GI50 (NCI/ADR-RES): < 0.01 µM (active) | GI50 (OVCAR-3): < 0.0189 µM (active) | GI50 (OVCAR-4): 0.0444 µM (active) | GI50 (OVCAR-5): 0.0234 µM (active) | GI50 (OVCAR-8): 0.0157 µM (active) | GI50 (PC-3): < 0.01 µM (active) | GI50 (RPMI-8226): < 0.01 µM (active) | GI50 (RXF 393): 0.0128 µM (active) | GI50 (SF-268): < 0.028 µM (active) | GI50 (SF-295): < 0.01 µM (active) | GI50 (SF-539): < 0.01 µM (active) | GI50 (SK-MEL-28): 0.0155 µM (active) | GI50 (SK-MEL-2): < 0.0218 µM (active) | GI50 (SK-MEL-5): 0.0395 µM (active) | GI50 (SK-OV-3): < 0.021 µM (active) | GI50 (SN12C): 0.0986 µM (active) | GI50 (SNB-19): < 0.01 µM (active) | GI50 (SNB-75): < 0.01 µM (active) | GI50 (SR): < 0.0125 µM (active) | GI50 (SW-620): < 0.01 µM (active) | GI50 (T47D): 0.0239 µM (active) | GI50 (TK-10): < 0.0361 µM (active) | GI50 (U-251): < 0.01 µM (active) | GI50 (UACC-257): < 0.0129 µM (active) | GI50 (UACC-62): 0.0675 µM (active) | GI50 (UO-31): < 0.0161 µM (active) | GI50 (XF498): 0.0213 µM (active)

CC(C)NCCNC(=O)c1ccccc1Nc1c(Cl)cccc1Cl
GI50 (786-0): 4.16 µM (inactive) | GI50 (A549): 17.3 µM (inactive) | GI50 (ACHN): 17.4 µM (inactive) | GI50 (CCRF-CEM): 10.5 µM (inactive) | GI50 (COLO 205): 11.6 µM (inactive) | GI50 (DLD-1): 13 µM (inactive) | GI50 (DMS-114): 10.9 µM (inactive) | GI50 (DMS-273): 13.2 µM (inactive) | GI50 (EKVX): 13.6 µM (inactive) | GI50 (HCC 2998): 2.84 µM (inactive) | GI50 (HCT-116): 11.3 µM (inactive) | GI50 (HCT-15): 13 µM | GI50 (HL-60): 8.71 µM (inactive) | GI50 (HOP-62): 11.6 µM (inactive) | GI50 (HT-29): 4.71 µM (inactive) | GI50 (IGROV-1): 16 µM (inactive) | GI50 (K562): 6.95 µM (inactive) | GI50 (KM-20L2): 2.73 µM (inactive) | GI50 (KM12): 16.9 µM (inactive) | GI50 (LOX IMVI): 7.24 µM (inactive) | GI50 (LXFL 529): 16.9 µM (inactive) | GI50 (M14): 11.5 µM (inactive) | GI50 (M19-MEL): 8.38 µM (inactive) | GI50 (MOLT-4): 8.69 µM (inactive) | GI50 (NCI-H226): 13.5 µM (inactive) | GI50 (NCI-H23): 17.7 µM (inactive) | GI50 (NCI-H460): 3.29 µM (inactive) | GI50 (OVCAR-3): 12.6 µM (inactive) | GI50 (OVCAR-4): 14.4 µM (inactive) | GI50 (OVCAR-5): 7.38 µM (inactive) | GI50 (OVCAR-8): 16.6 µM (inactive) | GI50 (RPMI-8226): 3.81 µM (inactive) | GI50 (RXF 393): 5.08 µM (inactive) | GI50 (SF-268): 18.1 µM (inactive) | GI50 (SF-295): 15.2 µM (inactive) | GI50 (SF-539): 15.8 µM (inactive) | GI50 (SK-MEL-28): 14.4 µM (inactive) | GI50 (SK-MEL-5): 5.04 µM (inactive) | GI50 (SK-OV-3): 14.8 µM (inactive) | GI50 (SN12C): 13.2 µM (inactive) | GI50 (SNB-19): 15.3 µM (inactive) | GI50 (SNB-75): 4.63 µM (inactive) | GI50 (SNB-78): 14.6 µM (inactive) | GI50 (SR): 9.06 µM (inactive) | GI50 (SW-620): 15.5 µM (inactive) | GI50 (TK-10): 11.8 µM (inactive) | GI50 (U-251): 4.65 µM (inactive) | GI50 (UACC-257): 10.3 µM (inactive) | GI50 (UACC-62): 15.8 µM (inactive) | GI50 (UO-31): 10.1 µM (inactive) | GI50 (XF498): 2.92 µM (inactive)
